Assay results published in US4029801A, “Pharmaceutical compositions and methods of treating hypertension” (priority 1970, dated 1977).

Legend:
blood pressure = assay: Tests for action on the cardiovascular system: hypotensive activity (activity in method 1, rats or cats, or method 2), reported in words; format: in vivo, rat, cat; conditions: standard test procedure, result in words
Procedure: Tests for action on the cardiovascular system were conducted according to one of the following procedures:
Cats were anaesthetised with pentobarbitone sodium (30 mg/kg) and the cephalic vein, femoral and carotid arteries and trachea were cannulated. The carotid cannula was introduced into the left ventricle and the femoral cannula into the aorta. Blood pressure and heart rate were recorded from the aortic cannula and left ventricular pressure from the carotid cannula. The test compunds were administered intravenously (0.1-25.6 mg/kg).
Method 2 (hypertensive rats)
Male or female rats are rendered hypertensive by applying a figure of 8 ligature around one kidney and contralateral nephrectomy. Blood pressure stabilises at a hypertensive level after 6 weeks. Systolic pressure is measured indirectly using a Decker Caudal Plethysmograph A control group of rats is run with each group treated with drug. Each group usually consists of six rats. Drugs are usually administered by the IP or oral routes. Pressures are read prior to drug administration and at two and 24 hours thereafter.

[1] = test system: blood pressure and heart rate; assay: Method 1 (rat): hypotensive activity in anaesthetised rats, i.v.; conditions: Rattus norvegicus, iv, 0.25 h, read-out: Hypotensive Activity
Procedure: Rats were anaesthetised with pentobarbitone sodium (60 mg/kg) and the jugular vein, trachea and carotid artery were cannulated. […] A decrease in heart rate of more than 30% from control values was considered to be significant bradycardia.

Compound	hypotensive activity (blood pressure)	minimal effective dose [1] [mg/kg]
O=C(NC1CCN(CCCC(O)c2ccccc2)CC1)c1ccccc1 (single isomer, unassigned; (+)) [Example 86, (+)-4-Benzamido-1-(4-phenyl-4-hydroxybutyl)piperidine]	hypotensive activity	1.6 to 3.2
O=C(NC1CCN(CCC2CCCCC2)CC1)c1ccccc1 [Example 1, 1-[2-(Cyclohexyl)ethyl]-4-benzamidopiperidine]	good hypotensive activity	1.6 to 3.2
COc1ccc(CCN2CCC(NC(=O)c3ccccc3)CC2)cc1OC [Example 5, 1-[2-(3,4-Dimethoxyphenyl)ethyl]-4-benzamidopiperidine]	–	< 30
COc1ccc(CCN2CCC(NC(=O)c3ccccc3Cl)CC2)cc1OC [Example 6, 1-[2-(3,4-Dimethoxyphenyl)ethyl]-4-(2-chlorobenzamido)-piperidine]	hypotensive activity	25.6
COc1cc(CCN2CCC(NC(=O)c3ccccc3)CC2)cc(OC)c1OC [Example 8, 1-[2-(3,4,5-Trimethoxyphenyl)ethyl]-4-benzamidopiperidine]	–	6.4 to 12.8
O=C(CN1CCC(NC(=O)c2ccccc2)CC1)c1ccc(O)c(O)c1 [Example 11, 1-[2-(3,4-Dihydroxyphenyl)-2-oxoethyl]-4-benzamidopiperidine]	marked hypotensive activity	1.6 to 3.2
O=C(NC1=CCN(CCc2ccccc2)CC1)c1ccccc1 [Example 26, 1-Phenethyl-4-benzamido-1,2,5,6-tetrahydropyridine]	hypotensive activity	–
O=C(NC1CCN(Cc2ccccc2)CC1)c1ccccc1 [Example 30, 1-Benzyl-4-benzamidopiperidine]	–	25.6
Cc1ccc(C(=O)NC2CCN(Cc3ccccc3)CC2)cc1 [Example 32, 1-Benzyl-4-(p-methylbenzamido)piperidine]	–	< 30
O=C(NC1CCN(CCc2ccccc2[N+](=O)[O-])CC1)c1ccccc1 [Example 33, 1-[2-(o-Nitrophenyl)ethyl]-4-benzamido-piperidine]	hypotensive activity	6.4 to 12.8
Cc1ccc(CCN2CCC(NC(=O)c3ccccc3)CC2)cc1C [Example 41, 1-[2-(3,4-Dimethylphenyl)ethyl]-4-benzamidopiperidine]	hypotensive activity	6.4 to 12.8
COc1ccc(CCN2CCC(NC(=O)c3ccccc3)CC2)cc1 [Example 49, 4-Benzamido-1-[2-(p-methoxyphenyl)ethyl]piperidine]	hypotensive activity	6.4 to 12.8
O=C(CCCN1CCC(NC(=O)c2ccccc2)CC1)Nc1ccccc1 [Example 50, N-Phenyl-4-(p-benzamidopiperid-1-yl)butyramide]	hypotensive activity	6.4 to 12.8
O=C(NC1CCN(CCCC(O)c2ccccc2)CC1)c1ccccc1 (stereo not shown) [Example 53, 4-Benzamido-1-(4-phenyl-4-hydroxybutyl)piperidine]	hypotensive activity	6.4 to 12.8
O=C(NC1CCN(CCCOc2cccc3ccccc23)CC1)c1ccccc1 [Example 55, 1-[3-(1-Naphthyloxy)-propyl]-4-benzamidopiperidine]	marked hypotensive activity	1.6 to 3.2
O=C(CN1CCC(NC(=O)c2ccccc2)CC1)c1ccc2c(c1)CCCC2 [Example 56, 1-[2-(1,2,3,4-Tetrahydro-6-napthyl)-2-oxoethyl]-4-benzamidopiperidine]	hypotensive activity	6.4 to 12.8

Compound	hypotensive activity (blood pressure)	minimal effective dose [1] [mg/kg]
O=C(NC1CCN(CC(O)c2ccc3c(c2)CCCC3)CC1)c1ccccc1 (stereo not shown) [Example 57, 1-[2-(1,2,3,4-Tetrahydro-6-naphthyl)-2-hydroxyethyl]-4-benzamido-piperidine]	hypotensive activity	1.6 to 3.2
Cl.O=C(NC1CCN(CCc2ccccc2)CC1)c1ccccc1 [Example 59, 1-Phenethyl-4-benzamidopiperidine hydrochloride]	hypotensive activity	–
CC(C(=O)c1ccc(O)cc1)N1CCC(NC(=O)c2ccccc2)CC1 (stereo not shown) [Example 64, 1-[1-Methyl-2-(4-hydroxy)phenyl-2-oxoethyl]-4-benzamidopiperidine]	–	< 30
CC(C(O)c1ccc(O)cc1)N1CCC(NC(=O)c2ccccc2)CC1 (stereo not shown) [Example 65, 1-[1-Methyl-2-(4-hydroxy)phenyl-2-hydroxyethyl]-4-benzamidopiperidine]	hypotensive activity	25.6
Cc1cc2c(cc1C(=O)CN1CCC(NC(=O)c3ccccc3)CC1)C(C)(C)CC(C)C2(C)C (stereo not shown) [Example 66, 7-(4-Benzamidopiperidinoacetyl)-1,1,3,4,4,6-hexamethyl-1,2,3,4-tetrahydronaphthalene]	hypotensive activity	6.4 to 12.8
Cc1cc2c(cc1C(O)CN1CCC(NC(=O)c3ccccc3)CC1)C(C)(C)CC(C)C2(C)C (stereo not shown) [Example 67, 7-[2-(4-Benzamidopiperid-1-yl)-1-hydroxyethyl]-1,1,3,4,4,6-Hexamethyl-1,2,3,4-tetrahydronaphthalene]	hypotensive activity	–
COc1ccccc1OCCN1CCC(NC(=O)c2ccccc2)CC1 [Example 68, 1-[2-(2-Methoxyphenoxy)ethyl]-4-benzamidopiperidine]	hypotensive activity	6.4 to 12.8
O=C(CCCN1CCC(NC(=O)c2ccccc2)CC1)c1ccc(Br)cc1 [Example 71, 4-Benzamido-1-[4-(4-bromophenyl)-4-oxobutyl]piperidine]	–	25.6
O=C(CCCN1CCC(NC(=O)c2ccc(Cl)cc2)CC1)c1ccccc1 [Example 76, 4-(4-Chlorobenzamido)-1-(4-phenyl-4-oxobutyl)piperidine]	hypotensive activity	6.4 to 12.8
COc1ccc(C(=O)CCCN2CCC(NC(=O)c3ccccc3)CC2)cc1 [Example 77, 4-Benzamido-1-[4-(4-methoxyphenyl)-4-oxobutyl]piperidine]	–	6.4 to 12.8
CC(Cc1ccccc1)N1CCC(NC(=O)c2ccccc2)CC1 (stereo not shown) [Example 78, 4-Benzamido-1-(1-phenylprop-2-yl)piperidine]	marked hypotensive activity	6.4 to 12.8
O=C(CCCN1CCC(NC(=O)c2ccccc2)CC1)c1ccc2ccccc2c1 [Example 80, 1-[4-(2-Naphthyl)-4-oxobutyl]-4-benzamidopiperidine]	hypotensive activity	1.6 to 3.2
C[N+]1(CCCC(=O)c2ccccc2)CCC(NC(=O)c2ccccc2)CC1 (stereo not shown) [Example 82, 4-Benzamido-1-methyl-1-(4-phenyl-4-oxobutyl)piperidinium iodide]	hypotensive activity	–
O=C(NC1CCN(CCc2ccc3ccccc3n2)CC1)c1ccccc1 [Example 95, 1-[2-(2-Quinolyl)ethyl]-4-benzamidopiperidine]	marked hypotensive activity	–
O=C(NC1CCN(CC(O)c2ccc[nH]2)CC1)c1ccccc1 (stereo not shown) [Example 98, 1-[2-Hydroxy-2-(2-pyrrol-2-yl)ethyl]-4-benzamidopiperidine]	hypotensive activity	–
